Structures are written as SMILES.

Assay type in all cases: cell-based
The test system of one assay is B16F10. Put plainly: Proliferation assay (crystal violet), B16F10. Particulars: Mus musculus, B16-F10, 96 h; B16F10 cells; 4 days incubation; crystal violet staining; read-out: IC50 inhibition of proliferation, B16F10. In short, it runs like this: (§1)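 Absorbance at 595 nm of crystal-violet-stained cells after 4 days' exposure to 0.001–10 μM compound (0.5% DMSO). Values normalized to a day-0 plate (0%) and untreated cells (100%); IC50 by 4-parameter fit.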

The subject of a further assay is Caco-2. Put plainly: Proliferation assay (crystal violet), Caco-2. Particulars: Homo sapiens, 96 h; Caco-2 cells; 4 days incubation; crystal violet staining; read-out: IC50 inhibition of proliferation, Caco2. In short, it runs like this:
as §1

In the next assay the test system is NCI-H460. Put plainly: Proliferation assay (crystal violet), NCI-H460. The note with it: Homo sapiens, 96 h; NCI-H460 cells; 4 days incubation; crystal violet staining; read-out: IC50 inhibition of proliferation, NCI-H460. Summed up:
as §1

A further assay relates to HeLa-MaTu-ADR. Put plainly: Proliferation assay (crystal violet), HeLa-MaTu-ADR. Particulars: 96 h; HeLa-MaTu-ADR cells; 4 days incubation; crystal violet staining; read-out: IC50 inhibition of proliferation, HeLa-MaTu-ADR. Summed up:
as §1

The next assay has as its system DU145. Put plainly: Proliferation assay (crystal violet), DU145. The note with it: Homo sapiens, DU-145, 96 h; DU145 cells; 4 days incubation; crystal violet staining; read-out: IC50 inhibition of proliferation, DU145. In short, it runs like this: as §1

`Cc1nsc(Nc2ccc(C#N)cn2)c1C(=O)Nc1ccc(OC2CCN(CC(F)(F)F)CC2)nc1` [Example 30, 5-[(5-Cyanopyridin-2-yl)amino]-3-methyl-N-(6-{[1-(2,2,2-trifluoroethyl)piperidin-4-yl]oxy}pyridin-3-yl)-1,2-thiazole-4-carboxamide]: the IC50 in the assay with B16F10 came to 390 nM; in the assay on Caco-2, 350 nM; in the assay on NCI-H460 it was 310 nM; in the assay on HeLa-MaTu-ADR, 230 nM; with DU145 it was 640 nM.
`Cc1nsc(Nc2cnc3ccccc3n2)c1C(=O)Nc1ccc(OC2CCCN(C(=O)OC(C)(C)C)C2)nc1` (stereo not shown) [Example 31, tert-Butyl 3-{[5-({[3-methyl-5-(quinoxalin-2-ylamino)-1,2-thiazol-4-yl]carbonyl}-amino)pyridin-2-yl]oxy}piperidine-1-carboxylate]: the IC50 is 950 nM in the assay on B16F10; 1100 nM in the assay on Caco-2; 730 nM in the assay on NCI-H460; 880 nM in the assay with HeLa-MaTu-ADR; 3000 nM with DU145.

The record behind these values is patent publication US20170334899A1, “AMINO-SUBSTITUTED ISOTHIAZOLES” (Bayer Pharma Aktiengesellschaft, priority 2014, published 2017).
